Source: publication PMC10860144, “Exploring the Dispersion and Electrostatic Components in Arene–Arene Interactions between Ligands and G4 DNA to Develop G4-Ligands” (Journal of Medicinal Chemistry, 2024)

Key:
Solubility at pH 7.4 = assay type: physicochemical
Procedure: (§1) Physicochemical properties
(§2) The Physicochemical profiling (LogD, Solubility, Caco-2 cell permeability) was performed as previously
(§3) described.8 Cell viability was performed as described below.
(§4) Table S2. Pharmacokinetic Properties
(§5) Compound Structure logD, Solubility, Rat hepsa Human mics b

[1] = Intrinsic clearance in rat hepatocytes; assay type: in vitro ADME
Procedure: (§6) All compounds (2–11, 25–29) were screened for their logD and solubility at pH 7.4 and for their intrinsic clearance in rat hepatocytes and human microsomes (Table S2). […] Replacing the basic amine side chain to a methyl substituent in the quinazolines (25–29) still retained good solubility (134 to over 1000 μM) but increased clearance in both rat hepatocytes and human microsomes. The logD was low for compounds with a basic amine side chain (2–11) and increased slightly when the amine was replaced with a methyl (25–29). As expected, additional substituents also affected the logD with the chloro-substituents increasing logD the most.
(§7) a Intrinsic clearance in rat hepatocytes ((μL/min)/10^6 cells).b Intrinsic clearance in human microsomes (μL/min/mg). […]

[2] = Intrinsic clearance in human microsomes; assay type: in vitro ADME; details: read-out: Human mics: intrinsic clearance in human microsomes
Procedure: as §6, §7

logD at pH 7.4 = assay type: physicochemical
Procedure: as §1, §2, §3, §4, §5

c-MYC Pu22 G4 DNA [3] = experiment: Microscale thermophoresis (MST), c-MYC Pu22 G4 DNA; assay type: binding, human; details: Cy5-labeled c-MYC Pu22 G4 DNA 25 nM; pH 7.4, 100 mM KCl; read-out: apparent Kd (MST)
Procedure: To evaluate the apparent binding affinities (Kd) for the compound series, we next used microscale thermophoresis (MST) with fluorescently labeled c-MYC Pu22 G4 DNA (Table S1). Overall, the measured MST binding results for compounds 2–11 corresponded well with the results from the FRET assay (Figures 2B and S3).
5′-Cy5 labeled G4 DNAs for this study were purchased from Eurofins Genomics. Stock solutions were prepared in water at 100 μM concentration. The sequences used are listed in Supporting Information Table S1. The G4 DNA sequences were folded in KCl buffer (10 mM phosphate, 100 mM KCl, pH 7.4) by heating at 95 °C for 5 min and then cooling to room temperature. All the experiments were performed in 10 mM phosphate pH 7.4, 100 mM KCl, and 0.05% Tween20. The labeled DNA concentration is held constant at 25 nM, and ligand concentration is varied depending on ligands Kd (16 1:3 dilutions). The samples were loaded into standard MST graded glass capillaries and initial fluorescence intensity of the capillary was measured using Monolith NT.115 (Nano Temper, Germany) with 20% LED power. The change in fluorescence with ligand’s concentrations were plotted in Excel and fitted through nonlinear equation to obtain the binding constants. […]
Microscale Thermophoresis (MST)
5'- Cy5 labelled G4 DNAs for this study were purchased from Eurofins Genomics. Stock solutions were prepared in water at […] concentration. The sequences used are listed in supplementary Table S1. The G4 DNA sequences were folded in KCl buffer (10 mM phosphate, 100 mM KCl, pH 7.4) by heating at 95 °C for 5 min and then cooling to room temperature. All the experiments were performed in 10 mM phosphate pH 7.4, 100 mM KCl, 0.05% Tween20. The labelled DNA concentration is held constant at 25 nM and ligand concentration is varied depending on ligands Kd (sixteen 1:3 dilutions). The samples were loaded into standard MST graded glass capillaries and initial fluorescence intensity of the capillary were measured using Monolith NT.115 (Nano Temper, Germany) with 20% LED power. The change in fluorescence with ligand's concentrations were plotted in Excel and fitted through non-linear equation to obtain the binding constants.
(1 picture or pasted object on this page, not shown here)

Pu24T c-MYC G4 structure = experiment: Kd for binding to the Pu24T c-MYC G4 structure (supplementary CSV); design: species or system human
Procedure: 5′-Cy5 labeled G4 DNAs for this study were purchased from Eurofins Genomics. Stock solutions were prepared in water at 100 μM concentration. The sequences used are listed in Supporting Information Table S1. The G4 DNA sequences were folded in KCl buffer (10 mM phosphate, 100 mM KCl, pH 7.4) by heating at 95 °C for 5 min and then cooling to room temperature. All the experiments were performed in 10 mM phosphate pH 7.4, 100 mM KCl, and 0.05% Tween20. The labeled DNA concentration is held constant at 25 nM, and ligand concentration is varied depending on ligands Kd (16 1:3 dilutions). The samples were loaded into standard MST graded glass capillaries and initial fluorescence intensity of the capillary was measured using Monolith NT.115 (Nano Temper, Germany) with 20% LED power. The change in fluorescence with ligand’s concentrations were plotted in Excel and fitted through nonlinear equation to obtain the binding constants.
The Supporting Information is available free of charge at https://pubs.acs.org/doi/10.1021/acs.jmedchem.3c02127. • Experimental procedures and data; assay data, computational results, and all cell data; NMR (^1H and ^13C) spectra for all compounds (with the exception of a few intermediates); and HPLC UV traces for the final compounds (PDF) • Molecular formula strings and Kd values for binding to the Pu24T c-MYC G4 structure (CSV)

c-MYC Pu22 G4 DNA [4] = experiment: FRET melting assay, c-MYC Pu22 G4 DNA; assay type: binding, human; details: c-MYC Pu22 G4 DNA; 5-40 equiv
Text: The synthesized compounds (2–11) were first analyzed using a Förster resonance energy transfer (FRET) assay (Figure 2A). This assay measures the compounds’ ability to affect the thermal stability of fluorescently labeled DNA, in this case, the c-MYC Pu22 G4 DNA (Table S1). […] The addition of one methyl group to the quinazoline core (3) provides almost twice as strong thermal stability compared to 2. The addition of a second methyl group (4) further increased stabilization, albeit modestly (by 0.5 °C). This slight increase between 3 and 4 could stem from the suboptimal positioning of the added methyl substituent in relation to the guanines on the G4 surface, compared to other positions on the quinazoline ring. […] Furthermore, the methyl-substituted (4) and the methoxy-substituted (6) display a similar G4 stabilization despite the strong electrostatic character of the methoxy substituent compared to the neutral methyl group, which further supports that these interactions are dispersion-driven. This conclusion is further supported by the fact that the replacement of the methoxy group in 6 with chlorine in 7 results in a very similar stabilization as 3, 4, and 6.
Synthetic labeled oligonucleotides for the FRET study were purchased from Eurofins Genomics. Stock solutions were prepared in MQ-water at 100 μM concentration. The sequences used are listed in Supporting Information Table S1. All the oligonucleotides except Pu22 were prefolded in 10 mM lithium cacodylate buffer (pH 7.4), with 10 mM KCl and 90 mM LiCl by heating for 10 min at 95 °C and then cooling in fridge for at least 1 h. Pu22 was folded in 10 mM lithium cacodylate buffer (pH 7.4), with 2 mM KCl and 98 mM LiCl.
The FRET occurs between two dyes (5′-FAM as donor and 3′-TAMRA as acceptor) linked at both extremities of a DNA oligonucleotide. When the oligonucleotides are folded into G4 structures, the donor and acceptor are in proximity, which results in an energy transfer from the donor to the acceptor. This process can be detected by a reduction in the fluorescence emission of the donor. Fluorescence emission of the donor is recovered when the temperature increment triggers the thermal denaturation of the G4 structure. The experiments were performed in a Bio-Rad CFX96 real-time PCR device at temperatures from 10 to 95 °C at 1.5 °C/m heating rate using a 492 nm excitation wavelength and a 516 nm detection wavelength in 96-well plates. […] The stabilization (ΔTm) is calculated from comparison of Tm of the fluorescently labeled oligonucleotide in the presence or absence of the ligand. […]
The fluorescence resonance energy transfer (FRET) occurs between two dyes (5'-FAM as donor and 3'- TAMRA as acceptor) linked at both extremities of a DNA oligonucleotide. […]

## Cc1cc(NCCCN(C)C)nc(Nc2cnc3ccccc3n2)n1 [Compound 8, N4-(3-(Dimethylamino)propyl)-6-methyl-N2-(quinoxalin-2-yl)pyrimidine-2,4-diamine]
Solubility at pH 7.4
  solubility: > 1000 µM
[1]
  Rat heps: intrinsic clearance in rat hepatocytes: 38 (μL/min)/106 cells
[2]
  microsomal CLint: 8 µL/min/mg
logD at pH 7.4
  logD: 1.4
c-MYC Pu22 G4 DNA [3]
  Kd: > 10 µM
Pu24T c-MYC G4 structure
  Kd: > 10 µM
c-MYC Pu22 G4 DNA [4]
  ability to stabilize the G4 structure (in words): almost no ability to stabilize the G4 structure
